Experimental data: BindingDB's records for doi:10.1016/j.bmcl.2006.01.055 (Bristol-Myers Squibb Pharmaceutical Research Institute, 2006)

Experiment: Inhibition of beta-amyloid peptide production in CHO N9 cell line

SMILES	IC50 [nM]
CCC[C@H](C(N)=O)[C@@H](CC(C)C)C(=O)N[C@H]1CCCCN(Cc2cccc(Nc3cccc(OC)c3)c2)C1=O	54
CCC[C@H](C(N)=O)[C@@H](CC(C)C)C(=O)N[C@H]1CCCCN(Cc2cccc(Nc3ccc(OC)cc3)c2)C1=O	160
CCC[C@H](C(N)=O)[C@@H](CC(C)C)C(=O)N[C@H]1CCCCN(Cc2cccc(Nc3ccc(F)c(Cl)c3)c2)C1=O	17
CCC[C@H](C(N)=O)[C@@H](CC(C)C)C(=O)N[C@H]1CCCCN(Cc2cccc(Nc3ccc4c(c3)OCO4)c2)C1=O	152
CCC[C@H](C(N)=O)[C@@H](CC(C)C)C(=O)N[C@H]1CCCCN(Cc2cccc(Nc3cccc(C)c3)c2)C1=O	17
CCC[C@H](C(=O)NO)[C@@H](CC(C)C)C(=O)N[C@H]1CCCCN(Cc2ccccc2)C1=O	6800
CCC[C@H](C(N)=O)[C@@H](CC(C)C)C(=O)N[C@H]1CCCCN(Cc2cccc(Nc3ccccc3Cl)c2)C1=O	29
CCC[C@H](C(N)=O)[C@@H](CC(C)C)C(=O)N[C@H]1CCCCN(Cc2cccc(Nc3ccc(C(F)(F)F)cc3)c2)C1=O	30

Now from value to molecule:

IC50 [nM]	SMILES
3000	CCC[C@H](C(=O)NC/C=C/Cc1ccccc1)[C@@H](CC(C)C)C(=O)N[C@H]1CCCCN(Cc2cccc(Oc3ccccc3)c2)C1=O
200	CCC[C@H](C(=O)NO)[C@@H](CC(C)C)C(=O)N[C@H]1CCCCN(Cc2cccc(Oc3ccccc3)c2)C1=O [(2S,3R)-N1-hydroxy-3-isobutyl-N4-((S)-2-oxo-1-(3-phenoxybenzyl)azepan-3-yl)-2-propylsuccinamide]
6000	CCC[C@H](C(=O)NC1CCCC1)[C@@H](CC(C)C)C(=O)N[C@H]1CCCCN(Cc2cccc(Oc3ccccc3)c2)C1=O
3000	CCC[C@H](C(=O)NCc1ccco1)[C@@H](CC(C)C)C(=O)N[C@H]1CCCCN(Cc2cccc(Oc3ccccc3)c2)C1=O
5000	CCCCNC(=O)[C@@H](CCC)[C@@H](CC(C)C)C(=O)N[C@H]1CCCCN(Cc2cccc(Oc3ccccc3)c2)C1=O
15	CCC[C@H](C(N)=O)[C@@H](CC(C)C)C(=O)N[C@H]1CCCCN(Cc2cccc(Nc3ccccc3)c2)C1=O [(2R,3S)-N1-((S)-1-(3-(phenylamino)benzyl)-2-oxoazepan-3-yl)-2-isobutyl-3-propylsuccinamide]
